Assay results published in patent publication US20100286056A1, “COMPOSITIONS FOR REDUCING OXIDATIVE STRESS AND USES THEREOF” (priority 2007, published 2010).

Key:
B16.F1 melanoma cells = test: Extracellular melanin accumulation (optical density 405 nm); assay type: cell-based, mouse; conditions: peptides at 10^-6, 10^-8 and 10^-10 M; NDP-α-MSH 10^-8 M; 72 hrs (FIG. 3)
Excerpt: It is also preferred that the compounds of the invention have no or merely a negligible melanotropic effect. “Melanotropic effect” means that the compound induces the extracellular melanin accumulation in a cell assay in accordance with the method described in the appended example 2 and/or in accordance with the method described in Siegrist and Eberle (Anal. Biochem. 1986; 159; 191-197), title “In situ melanin assay for MSH using mouse B16 melanoma cells in culture”. “No or negligible” means that the mean melanin accumulation which is induced by the compounds of the invention exceeds the mean melanin accumulation which is induced by at least one of the two compounds as exemplified in Example 2 by not more than about 40%, 30%, 20%, 15%, 10%, 5%, 2.5%, 2% or 1%, preferably under conditions which equate to or are identical with those set out in Example 2. The skilled person is able to justify which assay conditions/assays equate with the assay/conditions exemplified in the appended examples. The melanin accumulation evaluated in Example 2 is depicted in FIG. 3. The effect of the compounds of the invention on extracellular melanin accumulation is thus determinable by the methods disclosed herein. […]

human dermal fibroblasts = test: UVA-induced intracellular amplification of ROS (dihydrorhodamine 123, flow cytometry); assay type: cell-based
Method: The modulating effect of the tripeptides […]) and Thyrotropin Releasing Hormones (TRH, Protirelin, Thyoliberin, […]) was examined on human dermal fibroblasts that were seeded into 3.5 cm^2 tissue culture dishes in a density of 150,000 per dish in […] medium. Two days after seeding the cells, the medium supplemented with 10% foetal calf serum, 1% L-glutamine and 1% penicillin/streptomycin was exchanged with serum-free RPMI medium and pre-incubated for 24 hours with KPV, […] Subsequently, the cells were exposed to a physiological dose of UVA radiation (10 J/cm^2). Immediately after radiation, the cells were incubated with 5 μM dihydrorhodamine 123 plus 5 mM glucose in phosphate buffer (PBS) for 30 minutes. Subsequently, the cells were trypsinized, resuspended in PBS with 5 mM glucose and analyzed by means of flow cytometry (FACS, FACSCalibur with 488 nm argon laser). The above dihydrorhodamine probe is oxidized in the presence of intracellular ROS into green fluorescent […] and, thus, can be measured fluorometrically. A total of 10×10^3 cells per probe were analyzed and evaluated using CELL-QUEST software. The median of the FL-1 channel was used as parameter for the intracellular ROS amount, since it represents the maximum number of cells with the highest fluorescence. […]

In the case of NDP-α-MSH, the “melanotropic effect (extracellular melanin accumulation)” value (B16.F1 melanoma cells) is reported as “p<0.001 vs. control”.

For `NC(=O)[C@@H]1CCCN1C(=O)[C@H](Cc1c[nH]cn1)NC(=O)[C@@H]1CCC(=O)N1` [TRH, L-Pyroglutamyl-L-histidyl-L-prolinamid], the “UVA-induced intracellular amplification of ROS (oxidative stress)” value (human dermal fibroblasts; 10^-8 M peptide, 24 h pre-incubation, UVA 10 J/cm^2, significant, p<0.001 (FIG. 1)) was “suppressed” and the “effect on UVA-induced intracellular amplification of ROS compared to vitamin C (ascorbate)” value (human dermal fibroblasts; peptide 10^-8M vs vitamin C at 10^-2M as printed (FIG. 2)) was “comparable with that of vitamin C”.
